Experimental data published in ChEMBL document CHEMBL3045791, “Pharmacological screening for anti-inflammatory, analgesic activity of pyrazolyl derivatives along with molecular docking studies” (Med Chem Res, 2012).

Tests used:
Rattus norvegicus [1] = experiment: Analgesic activity in Rattus norvegicus Wistar albino (rat) at 20 mg/kg, ip measured at 30 min by tail immersion method relative to control; assay type: functional; details: route intraperitoneal
Rattus norvegicus [2] = experiment: Anti-inflammatory activity in Rattus norvegicus Wistar albino (rat) assessed as inhibition of carrageenan-induced hind paw edema at 10 mg/kg, po measured at 3 hr relative to control; assay type: functional
Rattus norvegicus [3] = experiment: Anti-inflammatory activity in Rattus norvegicus Wistar albino (rat) assessed as inhibition of carrageenan-induced hind paw edema at 10 mg/kg, po measured at 4 hr relative to control; assay type: functional
Rattus norvegicus [4] = experiment: Antioxidant activity in Rattus norvegicus Wistar albino (rat) stomach assessed as decrease in malondialdehyde content measured per 100 mg of tissue at 30 mg/kg, po after 60 min by spectrophotometric analysis (reference value: 3.86 +/- 0.19 nmol); assay type: functional
Rattus norvegicus [5] = experiment: Ulcerogenic activity in Rattus norvegicus Wistar albino (rat) stomach assessed as ulcer index at 30 mg/kg, po measured after 17 hr relative to control; assay type: toxicity, organism-based; design: dose 30 mg/kg, route oral; details: in vivo

| SMILES | Activity (Rattus norvegicus [1]) | inhibition in vivo at 10 mg/kg (Rattus norvegicus [2]) | inhibition in vivo at 10 mg/kg (Rattus norvegicus [3]) | Activity (Rattus norvegicus [4]) | UI (Rattus norvegicus [5]) |
| --- | --- | --- | --- | --- | --- |
| Cc1nn(-c2ccccc2)c(Cl)c1/C=N/NC(=O)c1ccc(Br)cc1 | 158.7% |  |  |  |  |
| Cc1nn(-c2ccccc2)c(Cl)c1/C=N/NC(=O)c1ccc(Cl)cc1Cl | 172.6% | 51.5% | 74.7% |  |  |
| COc1ccc2c(c1)c(CC(=O)O)c(C)n2C(=O)c1ccc(Cl)cc1 [INDOMETHACIN] |  | 48.5% | 77.2% | 21.98 nmol | 4.5 |
| Cc1nn(-c2ccccc2)c(Cl)c1/C=N/NC(=O)COc1ccccc1 |  |  |  |  | 0.41 |
| Cc1nn(-c2ccccc2)c(Cl)c1/C=N/NC(=O)c1ccc([N+](=O)[O-])cc1 | 92.8% | 12.1% | 54.4% |  |  |
| Cc1nn(-c2ccccc2)c(Cl)c1/C=N/NC(=O)c1ccc(F)cc1 | 187.8% | 36.4% | 67.1% |  |  |
| Cc1nn(-c2ccccc2)c(Cl)c1/C=N/NC(=O)Cc1cccc2ccccc12 | 116.3% | 42.4% | 55.7% |  |  |
| O=C(O)Cc1ccccc1Nc1c(Cl)cccc1Cl [DICLOFENAC] | 749.3% |  |  |  |  |
| Cc1nn(-c2ccccc2)c(Cl)c1/C=N/NC(=O)Cc1ccc(Cl)cc1 | 193.1% | 57.6% | 70.9% |  |  |
| Cc1nn(-c2ccccc2)c(Cl)c1/C=N/NC(=O)c1ccc(Cl)cc1 | 160.4% | 42.4% | 63.3% | 4.51 nmol | 0.25 |
| Cc1nn(-c2ccccc2)c(Cl)c1/C=N/NC(=O)c1ccccc1Cl | 149% |  |  |  |  |
